What was measured:
Type in all cases: in vivo, Digitaria insularis
Details in all cases: DASH 0.5% v/v
D. insularis (perennial) = experiment: Field trial, post-emergence application A (desiccation 30 days before soybean sowing), visual weed control rated 14 DAA-A
Procedure: (§1) A soil sample from the experimental site was analyzed and provided pH H2O 5.3; 0 cmolc H+Al^+3/dm^3; 4.2 cmolc/dm^3 Ca^+2; 1.6 cmolc/dm^3 Mg^+2; 242 mg/dm^3 K^+; 42.3 mg/dm^3 P; 18% sand; 15% silt and 67% clay.
(§2) For all herbicide applications, the applications were made using a backpack sprayer that was pressurized by CO2 with six flat fan nozzles XR110.015 at 3 bar, which caused the application volume to reach 150 L ha^−1.
(§3) Glyphosate was used as a commercially available soluble concentrate (SL)-formulation containing glyphosate as its potassium salt (480 g/l of glyphosate in its acid form), which is commercially available under the trade name Roundup Transorb R.
(§4) Imazamox was used as a commercially available water dispersible granule (WG)-formulation containing 700 g/Kg of imazamox, which is commercially available under the trade name Raptor® 70 DG.
(§5) In table 1, all details related to mode of application of herbicides, and climatic conditions during herbicide application are listed.
Crop sowing (in case of A and B; in case of A*, no crops were sown) was carried out under a no-tillage system, by distributing 16 seeds per meter of a M6410® soybean variety in all treatments with Raptor® 70 DG and also 16 seeds m^−1 of a second soybean cultivar (BMX Potência RR) in the remaining treatments. Immediately before sowing, the seeds of both cultivars were treated with a formulation of fipronil, pyraclostrobin and thiophanate methyl (Standak® Top; 200 mL per ha). Crop fertilization was performed with 300 kg ha^−1 of a commercial N-P-K formulation (02-20-18). […]
After the first application (application “A” and “A*”), two evaluations were performed on the effect of treatments on the weeds emerged at that application. For those evaluations, the infestation of the untreated control is used as reference. These assessments for the damage caused by the herbicides A and B, and the binary herbicide combination thereof were carried out at 14 days after application “A” (14 DAA-A) or 35 days after application “A*” (35-DAA-A*) using a scale from 0 to 100%, compared to the untreated control plants. Here, 0 means no damage and 100 means complete destruction of the plants.
The value E, which is to be expected if the activity of the individual compounds is just additive, was calculated using the method of S. R. Colby (1967) “Calculating synergistic and antagonistic responses of herbicide combinations”, Weeds 15, p. 22 ff. For two component mixtures the value E was calculated by the following formula […]
(§6) If the value observed in this manner is higher than the value E calculated according to Colby, a synergistic effect is present. […]

D. insularis (flowering) = experiment: Field trial, post-emergence application B (desiccation 0 days before soybean sowing), visual weed control rated 28 DAA-B
Procedure: as §1, §2, §3, §4, §5
Crop sowing (in case of A and B; in case of A*, no crops were sown) was carried out under a no-tillage system, by distributing 16 seeds per meter of a M6410® soybean variety in all treatments with Raptor® 70 DG and also 16 seeds m^−1 of a second soybean cultivar (BMX Potência RR) in the remaining treatments. Immediately before sowing, the seeds of both cultivars were treated with a formulation of fipronil, pyraclostrobin and thiophanate methyl (Standak® Top; 200 mL per ha). Crop fertilization was performed with 300 kg ha^−1 of a commercial N-P-K formulation (02-20-18).
For the post-emergence treatment, the test plants were first grown to a height of 3 to 20 cm, depending on the plant habit, and only then treated. Here, the herbicidal compositions were suspended or emulsified in water as distribution medium and sprayed using finely distributing nozzles.
Herbicide B was formulated as 10% by weight strength suspension concentrate and introduced to the spray liquor with the amount of solvent system used for applying the active compound. […]
(§7) The value E, which is to be expected if the activity of the individual compounds is just additive, was calculated using the method of S. R. Colby (1967) “Calculating synergistic and antagonistic responses of herbicide combinations”, Weeds 15, p. […] For two component mixtures the value E was calculated by the following formula […]
as §6
(§8) The results are summarized in the following tables 2, 3 and 4 that show the herbicidal activity of the individual actives and of their combinations in post-emergence application assessed 14, 28 and 35 day after treatment (DAT), respectively.

[1] = test system: D. insularis (early stage - 2 to 6 leaves); experiment: Field trial, post-emergence application A* (no soybean sowing), visual weed control rated 35 DAA-A*
Procedure: as §1, §2
Glyphosate was used as a commercially available soluble concentrate (SL)-formulation containing glyphosate as its potassium salt (480 g/l of glyphosate in its acid form), which is commercially available under the trade name Roundup Transorb R. […]
as §7, §6, §8

SMILES	Control (%) of D. insularis (perennial) (D. insularis (perennial); dose 1080 g ai/ha, scale 0-100% vs untreated) [%]	Control (%) of D. insularis (flowering) (D. insularis (flowering); dose 1440 g ai/ha) [%]	Control (%) of D. insularis (early stage - 2 to 6 leaves) ([1]; dose 1080 g ai/ha) [%]	Control (%) of D. insularis (perennial) (D. insularis (perennial); dose 49 g ai/ha) [%]	Control (%) of D. insularis (perennial) (D. insularis (perennial); dose 70 g ai/ha) [%]	Control (%) of D. insularis (perennial) (D. insularis (perennial); dose 91 g ai/ha) [%]	Control (%) of D. insularis (flowering) (D. insularis (flowering); dose 70 g ai/ha) [%]	Control (%) of D. insularis (flowering) (D. insularis (flowering); dose 105 g ai/ha) [%]	Control (%) of D. insularis (flowering) (D. insularis (flowering); dose 140 g ai/ha) [%]	Control (%) of D. insularis (early stage - 2 to 6 leaves) ([1]; dose 105 g ai/ha) [%]
O=C(O)CNCP(=O)(O)O [Herbicide A, N-(phosphonomethyl)glycine]	5	45	5							
COCc1cnc(C2=NC(C)(C(C)C)C(=O)N2)c(C(=O)O)c1 (stereo not shown) [Herbicide B, 2-(4-isopropyl-4-methyl-5-oxo-2-imidazolin-2-yl)-5-(methoxymethyl)nicotinic acid]				13	20	20	40	40	50	13
